Where two headings read alike, the source gives them in different places.
Assays:
[1] = test system: VZV (wild-type strains); assay: Anti-VZV assay (wild-type strains): virus-induced cytopathicity in HEL cell cultures; assay type: cell-based, varicella-zoster virus; details: for EC50: HEL cell cultures
[2] = test system: HIV-2(ROD); assay: Inhibition of HIV-2 (ROD)-induced cytopathicity (giant cell formation) in CEM cells; assay type: cell-based; details: read-out: EC50 HIV-2 (concentration required to inhibit HIV-induced giant cell formation by 50%); HIV-2, CEM cell cultures
Protocol: (§1) A variety of glycopeptide antibiotic derivatives of vancomycin, eremomycin and teicoplanin including their aglycon derivatives were evaluated for their inhibitory activity against HIV-1 (IIIB) and HIV-2(ROD) in CEM cell cultures.

[3] = test system: human lymphocyte Molt4/clone 8; assay: Cytostatic activity assay, Molt4/clone 8 cells; assay type: cell-based; details: read-out: IC50 Molt4/C8 (compound concentration required to inhibit tumor cell proliferation by 50%)
[4] = test system: murine leukemia L1210; assay: Cytostatic activity assay, L1210 cells; assay type: cell-based; details: read-out: IC50 L1210 (compound concentration required to inhibit tumor cell proliferation by 50%)
[5] = test system: HSV-2 (G); assay: Anti-HSV-2 assay: virus-induced cytopathicity in HEL cell cultures
[6] = test system: HEL cells
[7] = test system: HIV-1 (IIIB); assay: Inhibition of HIV-1 (IIIB)-induced cytopathicity (giant cell formation) in CEM cells; assay type: cell-based; details: read-out: EC50 HIV-1 (concentration required to inhibit HIV-induced giant cell formation by 50%); HIV-1, CEM cell cultures
Protocol: as §1

[8] = test system: HSV-1 (KOS); assay: Anti-HSV-1 assay: virus-induced cytopathicity in HEL cell cultures
[9] = test system: human lymphocyte CEM; assay: Cytostatic activity assay, CEM cells; assay type: cell-based; details: read-out: IC50 CEM (compound concentration required to inhibit tumor cell proliferation by 50%)
[10] = test system: HEL cells; details: read-out: CC50 (HEL)
[11] = test system: Vero cells; details: read-out: CC50 Vero
[12] = test system: FCV; assay: Feline corona virus assay in Feline Crandel kidney cells (MTS); assay type: cell-based; details: FCV in FCK cells; read-out: EC50 FCV
Protocol: Feline Crandel kidney cells were seeded in 96-well microtiter plates at 24,000 cells/well. Then, 24 hrs later, an appropriate inoculum of FCV is added together with 5-fold dilutions of the test compounds. After 4 days, a MTS/PMS solution was added to each well. Following a 90 min incubation period at 37° C., the optical density of the wells was read at 498 nm in a microplate reader.

[13] = test system: SARS virus (strain Frankfurt-1); assay: microbe, parasite or virus in culture; assay type: cell-based, human corona (SARS) virus; details: SARS virus in Vero cells; read-out: EC50 SARS virus
[14] = test system: FCK cells; details: read-out: CC50 FCK; FCK cells
[15] = test system: CMV; assay: Anti-CMV assay: virus-induced cytopathicity in HEL cell cultures
[16] = VZV strain OKA, read-out: EC50 VZV (OKA)
[17] = VZV strain YS, read-out: EC50 VZV (YS)
[18] = read-out: EC50 HSV-2 (G), HEL cell cultures
[19] = read-out: EC50 HSV-1 (KOS), HEL cell cultures
[20] = read-out: EC50 CMV AD-169, CMV strain AD-169, HEL cell cultures
[21] = read-out: EC50 CMV Davis, CMV strain Davis, HEL cell cultures

Row | Compound | EC50 [1, 16] [µM] | EC50 [1, 17] [µM] | EC50 [2] [µM] | IC50 [3] [µM] | IC50 [4] [µM] | EC50 [5, 18] [µM] | MTC (HEL) [6] | MTC (HEL) ([6]; anti-VZV table) | EC50 [7] [µM] | EC50 [8, 19] [µM] | IC50 [9] [µM] | CC50 ([10]; HEL cell proliferation) [µM] | CC50 ([10]; HEL cells, anti-VZV table) [µM] | CC50 [11] [µM] | EC50 [12] [µM] | EC50 [13] [µM] | CC50 [14] [µM] | further results
1 | CCCCCCCCCC(=O)N1CCN(C(=O)C2NC(=O)C3NC(=O)C(NC(=O)C4NC(=O)C5NC(=O)C(Cc6ccc(c(Cl)c6)Oc6cc4cc(c6O)Oc4ccc(cc4Cl)C3O)NC(=O)C(N)c3ccc(O)c(c3)Oc3cc(O)cc5c3)c3ccc(O)c(c3)-c3c(O)cc(O)cc32)CC1 (stereo not drawn) [Compound 40] | 0.29 | 0.21 | 4.5 ± 2.1 | 32.3 | 38.7 ± 3.4 | 9.6 | ≧5-20 μM | ≧5-20 μM | 1.5 ± 0.7 | 9.6 | 44 ± 0.42 | > 50 | > 50 |  |  |  |  | 
2 | CCCCOc1ccc(CNCCOc2c3cc4cc2Oc2ccc(cc2Cl)C(O)C2NC(=O)C(NC(=O)C4NC(=O)C4NC(=O)C(Cc5ccc(c(Cl)c5)O3)NC(=O)C(NCc3ccc(OCCCC)cc3)c3ccc(O)c(c3)Oc3cc(O)cc4c3)c3ccc(O)c(c3)-c3c(O)cc(O)cc3C(C(=O)O)NC2=O)cc1 (stereo not drawn) [Compound 132] | 0.97 |  |  |  |  | 9.6 | ≧5-20 μM | ≧5-20 μM |  | 9.6 |  | 40 | 40 |  |  |  |  | activity against HSV-2 [5]: activity; activity against HSV-1 [8]: activity
3 | CN(C)CCCNC(=O)C1NC(=O)C2NC(=O)C(NC(=O)C3NC(=O)C4NC(=O)C(Cc5ccc(c(Cl)c5)Oc5cc3cc(c5O)Oc3ccc(cc3Cl)C2O)NC(=O)C(N)c2ccc(O)c(c2)Oc2cc(O)cc4c2)c2ccc(O)c(c2)-c2c1cc(O)c(CN1CCN(Cc3ccc(-c4ccccc4)cc3)CC1)c2O (stereo not drawn) [Compound 28] | 2.5 | 2 | 8.5 ± 2.1 | > 500 | 318 ± 256 |  |  | ≧5-20 μM | 3.5 ± 0.7 |  | > 500 |  | 105 | > 100 | > 50 | 16 | 21 | 
4 | CCCCc1ccc(CN2CCN(C(=O)C3NC(=O)C4NC(=O)C(NC(=O)C5NC(=O)C6NC(=O)C(Cc7ccc(c(Cl)c7)Oc7cc5cc(c7O)Oc5ccc(cc5Cl)C4O)NC(=O)C(N)c4ccc(O)c(c4)Oc4cc(O)cc6c4)c4ccc(O)c(c4)-c4c(O)cc(O)cc43)CC2)cc1 (stereo not drawn) [Compound 124] | 0.34 | 0.22 |  |  |  |  |  | ≧5-100 μM |  |  |  |  | 71 | > 100 |  | 15 | 17 | MTC (HEL) ([6]; anti-CMV table): ≧5-100 μM; CC50 ([10]; HEL cells, anti-CMV table): 71 µM; anti-CMV activity [15]: anti-CMV activity; EC50 [15, 20]: 2.4 µM; EC50 [15, 21]: 3.2 µM
5 | NCCCCCCNC(=O)C1NC(=O)C2NC(=O)C(NC(=O)C3NC(=O)C4NC(=O)C(Cc5ccc(c(Cl)c5)Oc5cc3cc(c5O)Oc3ccc(cc3Cl)C2O)NC(=O)C(N)c2ccc(O)c(c2)Oc2cc(O)cc4c2)c2ccc(O)c(c2)-c2c(O)cc(O)cc21 (stereo not drawn) [Compound 41] | > 5 | 12 | 17.5 ± 3.5 | > 500 | > 500 |  |  | ≧20-50 μM | 15 |  | > 500 |  | 190 | > 100 | 21 | 44 | > 50 | 
6 | CN(Cc1ccc(Cl)cc1)Cc1c(O)cc2c(c1O)-c1cc(ccc1O)C1NC(=O)C3NC(=O)C4NC(=O)C(Cc5ccc(c(Cl)c5)Oc5cc3cc(c5O)Oc3ccc(cc3Cl)C(O)C(NC1=O)C(=O)NC2C(=O)O)NC(=O)C(N)c1ccc(O)c(c1)Oc1cc(O)cc4c1 (stereo not drawn) [Compound 115] | > 5 | 8.9 |  |  |  | > 16 | ≧20-200 μM | ≧20-200 μM |  | 80 |  | 50 | 50 |  |  |  |  | 
7 | Ristosaminylaglycon of ristomycin [Compound 88] |  |  |  |  |  | > 200 |  |  |  | 120 |  | > 50 |  |  |  |  |  | 
8 | CCCCOc1ccc(CN2CCN(C(=O)C3NC(=O)C4NC(=O)C(NC(=O)C5NC(=O)C6NC(=O)C(Cc7ccc(c(Cl)c7)Oc7cc5cc(c7O)Oc5ccc(cc5Cl)C4O)NC(=O)C(N)c4ccc(O)c(c4)Oc4cc(O)cc6c4)c4ccc(O)c(c4)-c4c(O)cc(O)cc43)CC2)cc1 (stereo not drawn) [Compound 125] | 0.32 | 0.25 |  |  |  |  |  | ≧2-20 μM |  |  |  |  | 44 | > 100 | 1.6 | 10 | 14 | MTC (HEL) ([6]; anti-CMV table): ≧2-20 μM; CC50 ([10]; HEL cells, anti-CMV table): 44 µM; anti-CMV activity [15]: anti-CMV activity; EC50 [15, 20]: 1.9 µM; EC50 [15, 21]: 2.8 µM
9 | CCCCc1ccc(CNCc2c(O)cc3c(c2O)-c2cc(ccc2O)C2NC(=O)C4NC(=O)C5NC(=O)C(Cc6ccc(c(Cl)c6)Oc6cc4cc(c6O)Oc4ccc(cc4Cl)C(O)C(NC2=O)C(=O)NC3C(=O)O)NC(=O)C(NC(=O)OC(C)(C)C)c2ccc(O)c(c2)Oc2cc(O)cc5c2)cc1 (stereo not drawn) [Compound 146] | 2.5 |  |  |  |  | 9.6 | ≧5-50 μM | ≧5-50 μM |  | 9.6 |  | > 50 | > 50 |  |  |  |  | activity against HSV-2 [5]: activity; MTC (HEL) ([6]; anti-CMV table): ≧5-50 μM; activity against HSV-1 [8]: activity; CC50 ([10]; HEL cells, anti-CMV table): > 50 µM; EC50 [15, 20]: > 20 µM
10 | CC1(C)SC2C(NC(=O)C3NC(=O)C4NC(=O)C(NC(=O)C5NC(=O)C6NC(=O)C(Cc7ccc(c(Cl)c7)Oc7cc5cc(c7O)Oc5ccc(cc5Cl)C4O)NC(=O)C(N)c4ccc(O)c(c4)Oc4cc(O)cc6c4)c4ccc(O)c(c4)-c4c(O)cc(O)cc43)C(=O)N2C1C(=O)O (stereo not drawn) [Compound 145] | 3.9 | 2.8 |  |  |  | 48 |  |  |  | 48 |  | > 50 | > 50 |  |  |  |  | 
11 | CC(C)CC(C(=O)NC1C(=O)NC(CC(N)=O)C(=O)NC2C(=O)NC3C(=O)NC(C(=O)NC(C(=O)O)c4cc(O)c(CN5CCN(Cc6ccc(-c7ccccc7)cc6)CC5)c(O)c4-c4cc3ccc4O)C(O)c3ccc(cc3)Oc3cc2cc(c3O)Oc2ccc(cc2Cl)C1O)N(C)C(=O)OC(C)(C)C (stereo not drawn) [Compound 98] | 2.3 | 1.3 |  |  |  |  | ≧20-200 μM | ≧20-200 μM |  |  |  | > 50 | > 50 |  |  |  |  | activity against VZV [1]: pronounced activity; EC50 ([5]; read-out: EC50 HSV-2): 24 µM; EC50 ([8]; read-out: EC50 HSV-1): 24 µM
12 | NC1C(=O)NC2Cc3ccc(c(Cl)c3)Oc3cc4cc(c3O)Oc3ccc(cc3Cl)C(O)C3NC(=O)C(NC(=O)C4NC(=O)C(NC2=O)c2cc(O)cc(c2)Oc2cc1ccc2O)c1ccc(O)c(c1)-c1c(O)cc(O)cc1C(C(=O)N(C(=O)NC1CCCCC1)C1CCCCC1)NC3=O (stereo not drawn) [Compound 167] |  |  | 10 ± 2.8 | 132 ± 9 | 130 ± 1 |  |  |  | 6 ± 2.6 |  | 165 ± 34 |  |  | > 100 | 7.7 | 47 | 62 | 
